# Test results reported in ChEMBL document CHEMBL4334464, “From Phenylthiazoles to Phenylpyrazoles: Broadening the Antibacterial Spectrum toward Carbapenem-Resistant Bacteria” (J Med Chem, 2019).
# The source made the active and inactive calls. The calls are words filed in the database; no cut-off is given here.
# Test system: Escherichia coli
# Assay: Ratio of MBC to MIC for Escherichia coli ATCC 1411 clinical isolates
# Assay type: functional
# Settings: not given
row,SMILES,Ratio
1,CCCC#Cc1ccc(-n2ncc(/C(C)=N/NC(=N)N)c2C)cc1,>=1
2,C/C(=N\NC(=N)N)c1cnn(-c2ccc(C#Cc3ccccc3)cc2)c1C,>=1

# Test system: Pseudomonas aeruginosa
# Assay: Antibacterial activity against Pseudomonas aeruginosa ATCC 15442 clinical isolates after 18 to 20 hrs in aerobic condition by CLSI-based broth microdilution assay
# Assay type: functional
# Settings: not given
row,SMILES,MIC
1,CCCC#Cc1ccc(-n2ncc(/C(C)=N/NC(=N)N)c2C)cc1,16 µg/mL
2,C/C(=N\NC(=N)N)c1cnn(-c2ccc(C#Cc3ccccc3)cc2)c1C,32 µg/mL

# Test system: Escherichia coli
# Assay: Ratio of MBC to MIC for Escherichia coli BW25113 clinical isolates
# Assay type: functional
# Settings: not given
row,SMILES,Ratio
1,CCCC#Cc1ccc(-n2ncc(/C(C)=N/NC(=N)N)c2C)cc1,>=1
2,C/C(=N\NC(=N)N)c1cnn(-c2ccc(C#Cc3ccccc3)cc2)c1C,>=1

# Test system: Pseudomonas aeruginosa
# Assay: Antibacterial activity against carbapenem-resistant Pseudomonas aeruginosa ATCC 1744 clinical isolates after 18 to 20 hrs in aerobic condition by CLSI-based broth microdilution assay
# Assay type: functional
# Settings: not given
row,SMILES,MIC
1,CCCC#Cc1ccc(-n2ncc(/C(C)=N/NC(=N)N)c2C)cc1,32 µg/mL
2,C/C(=N\NC(=N)N)c1cnn(-c2ccc(C#Cc3ccccc3)cc2)c1C,16 µg/mL

# Test system: Streptococcus pneumoniae
# Assay: Ratio of MBC to MIC for […] Streptococcus pneumoniae ATCC 700677 clinical isolates
# Assay type: functional
# Settings: not given
row,SMILES,Ratio
1,CCCC#Cc1ccc(-n2ncc(/C(C)=N/NC(=N)N)c2C)cc1,<3
2,C/C(=N\NC(=N)N)c1cnn(-c2ccc(C#Cc3ccccc3)cc2)c1C,<3

# Test system: Escherichia coli
# Assay: Antimicrobial activity against Escherichia coli JW55031 harboring deltatolC mutant after 18 to 20 hrs in aerobic condition by CLSI protocol based broth microdilution assay
# Assay type: functional
# Settings: not given
row,SMILES,MIC
1,CCCC#Cc1ccc(-n2ncc(/C(C)=N/NC(=N)N)c2C)cc1,4 µg/mL
2,C/C(=N\NC(=N)N)c1cnn(-c2ccc(C#Cc3ccccc3)cc2)c1C,2 µg/mL

# Test system: Listeria monocytogenes
# Assay: Ratio of MBC to MIC for Listeria monocytogenes ATCC 19111 clinical isolates
# Assay type: functional
# Settings: not given
row,SMILES,Ratio
1,CCCC#Cc1ccc(-n2ncc(/C(C)=N/NC(=N)N)c2C)cc1,<3
2,C/C(=N\NC(=N)N)c1cnn(-c2ccc(C#Cc3ccccc3)cc2)c1C,<3

# Test system: Enterococcus faecalis
# Assay: Ratio of MBC to MIC for vancomycin-resistant Enterococcus faecalis ATCC 51299 clinical isolates
# Assay type: functional
# Settings: not given
row,SMILES,Ratio
1,CCCC#Cc1ccc(-n2ncc(/C(C)=N/NC(=N)N)c2C)cc1,<3
2,C/C(=N\NC(=N)N)c1cnn(-c2ccc(C#Cc3ccccc3)cc2)c1C,<3

# Test system: Streptococcus pneumoniae
# Assay: Antibacterial activity against cephalosporin-resistant Streptococcus pneumoniae ATCC 51916 clinical isolates after 18 to 20 hrs by CLSI-based broth microdilution assay
# Assay type: functional
# Settings: not given
row,SMILES,MIC
1,CCCC#Cc1ccc(-n2ncc(/C(C)=N/NC(=N)N)c2C)cc1,4 µg/mL
2,C/C(=N\NC(=N)N)c1cnn(-c2ccc(C#Cc3ccccc3)cc2)c1C,1 µg/mL

# Test system: Clostridioides difficile
# Assay: Ratio of MBC to MIC for Clostridium difficile ATCC BAA 1870
# Assay type: functional
# Settings: not given
row,SMILES,Ratio
1,CCCC#Cc1ccc(-n2ncc(/C(C)=N/NC(=N)N)c2C)cc1,<3
2,C/C(=N\NC(=N)N)c1cnn(-c2ccc(C#Cc3ccccc3)cc2)c1C,<3

# Test system: Staphylococcus aureus
# Assay: Antibacterial activity against methicillin-resistant Staphylococcus aureus NRS384-USA300 clinical isolates after 18 to 20 hrs in aerobic condition by CLSI protocol based broth microdilution assay
# Assay type: functional
# Settings: not given
row,SMILES,MIC
1,CCCC#Cc1ccc(-n2ncc(/C(C)=N/NC(=N)N)c2C)cc1,4 µg/mL
2,C/C(=N\NC(=N)N)c1cnn(-c2ccc(C#Cc3ccccc3)cc2)c1C,1 µg/mL

# Test system: Acinetobacter baumannii
# Assay: Antibacterial activity against Acinetobacter baumannii NR 17786 clinical isolates after 18 to 20 hrs in aerobic condition by CLSI-based broth microdilution assay
# Assay type: functional
# Settings: not given
row,SMILES,MIC
1,CCCC#Cc1ccc(-n2ncc(/C(C)=N/NC(=N)N)c2C)cc1,16 µg/mL
2,C/C(=N\NC(=N)N)c1cnn(-c2ccc(C#Cc3ccccc3)cc2)c1C,8 µg/mL

# Test system: Staphylococcus aureus
# Assay: Antibiofilm activity against methicillin-resistant Staphylococcus aureus NRS384-USA300 clinical isolates assessed as inhibition of biofilm formation at 0.5 times MIC incubated for 24 hrs by crystal violet staining based spectrophotometric method relative to control
# Assay type: functional
# Settings: not given
row,SMILES,inhibition (INH)
1,CCCC#Cc1ccc(-n2ncc(/C(C)=N/NC(=N)N)c2C)cc1,74%
2,C/C(=N\NC(=N)N)c1cnn(-c2ccc(C#Cc3ccccc3)cc2)c1C,50%

# Target: T1, Ditrans,polycis-undecaprenyl-diphosphate synthase ((2E,6E)-farnesyl-diphosphate specific) (Escherichia coli (strain K12)) (UniProt P60472)
# T1 sequence (whole entry): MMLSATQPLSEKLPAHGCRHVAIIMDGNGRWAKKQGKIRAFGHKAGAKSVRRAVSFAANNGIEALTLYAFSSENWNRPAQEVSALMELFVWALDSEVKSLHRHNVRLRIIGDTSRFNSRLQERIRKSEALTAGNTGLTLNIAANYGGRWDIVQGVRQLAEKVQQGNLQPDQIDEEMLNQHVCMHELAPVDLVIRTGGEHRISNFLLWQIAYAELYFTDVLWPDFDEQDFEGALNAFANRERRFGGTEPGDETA
# Assay: Inhibition of Escherichia coli UPPS using FPP/IPP as substrate preincubated for 30 mins followed by substrates addition and measured after 30 mins by malachite green reagent based assay
# Settings: not given
row,SMILES,inhibition
1,CCCC#Cc1ccc(-n2ncc(/C(C)=N/NC(=N)N)c2C)cc1,inactive
2,C/C(=N\NC(=N)N)c1cnn(-c2ccc(C#Cc3ccccc3)cc2)c1C,inactive

# Test system: Escherichia coli
# Assay: microbe, parasite or virus in culture
# Settings: ATCC 1411
# Description: Antibacterial activity against Escherichia coli ATCC 1411 clinical isolates after 18 to 20 hrs in aerobic condition by CLSI-based broth microdilution assay
row,SMILES,MIC
1,CCCC#Cc1ccc(-n2ncc(/C(C)=N/NC(=N)N)c2C)cc1,16 µg/mL
2,C/C(=N\NC(=N)N)c1cnn(-c2ccc(C#Cc3ccccc3)cc2)c1C,8 µg/mL

# Test system: Pseudomonas aeruginosa
# Assay: Ratio of MBC to MIC for Pseudomonas aeruginosa ATCC 9027 clinical isolates
# Assay type: functional
# Settings: not given
row,SMILES,Ratio
1,CCCC#Cc1ccc(-n2ncc(/C(C)=N/NC(=N)N)c2C)cc1,>=1
2,C/C(=N\NC(=N)N)c1cnn(-c2ccc(C#Cc3ccccc3)cc2)c1C,>=1

# Test system: Pseudomonas aeruginosa
# Assay: microbe, parasite or virus in culture
# Settings: ATCC 25619
# Description: Antibacterial activity against Pseudomonas aeruginosa ATCC 25619 clinical isolates after 18 to 20 hrs in aerobic condition by CLSI-based broth microdilution assay
row,SMILES,MIC
1,CCCC#Cc1ccc(-n2ncc(/C(C)=N/NC(=N)N)c2C)cc1,16 µg/mL
2,C/C(=N\NC(=N)N)c1cnn(-c2ccc(C#Cc3ccccc3)cc2)c1C,32 µg/mL

# Test system: Clostridioides difficile
# Assay: Antibacterial activity against Clostridium difficile ATCC BAA 1870 incubated for 48 hrs in anaerobic condition by CLSI-based broth microdilution assay
# Assay type: functional
# Settings: ATCC BAA 1870, 48 h
row,SMILES,MIC
1,CCCC#Cc1ccc(-n2ncc(/C(C)=N/NC(=N)N)c2C)cc1,8 µg/mL
2,C/C(=N\NC(=N)N)c1cnn(-c2ccc(C#Cc3ccccc3)cc2)c1C,4 µg/mL

# Test system: Klebsiella pneumoniae
# Assay: Antibacterial activity against carbapenem-resistant Klebsiella pneumoniae ATCC BAA-1705 clinical isolates after 18 to 20 hrs in aerobic condition by CLSI-based broth microdilution assay
# Assay type: functional
# Settings: not given
row,SMILES,MIC
1,CCCC#Cc1ccc(-n2ncc(/C(C)=N/NC(=N)N)c2C)cc1,16 µg/mL
2,C/C(=N\NC(=N)N)c1cnn(-c2ccc(C#Cc3ccccc3)cc2)c1C,16 µg/mL

# Test system: Klebsiella pneumoniae
# Assay: Antibacterial activity against Klebsiella pneumoniae BAA-1706 clinical isolates after 18 to 20 hrs in aerobic condition by CLSI-based broth microdilution assay
# Assay type: functional
# Settings: not given
row,SMILES,MIC
1,CCCC#Cc1ccc(-n2ncc(/C(C)=N/NC(=N)N)c2C)cc1,8 µg/mL
2,C/C(=N\NC(=N)N)c1cnn(-c2ccc(C#Cc3ccccc3)cc2)c1C,8 µg/mL

# Test system: Klebsiella pneumoniae
# Assay: Antibacterial activity against carbapenem-resistant Klebsiella pneumoniae ATCC BAA-2146 clinical isolates after 18 to 20 hrs in aerobic condition by CLSI-based broth microdilution assay
# Assay type: functional
# Settings: not given
row,SMILES,MIC
1,CCCC#Cc1ccc(-n2ncc(/C(C)=N/NC(=N)N)c2C)cc1,32 µg/mL
2,C/C(=N\NC(=N)N)c1cnn(-c2ccc(C#Cc3ccccc3)cc2)c1C,16 µg/mL

# Test system: Salmonella enterica
# Assay: Antibacterial activity against Salmonella enterica NR-170 clinical isolates after 18 to 20 hrs in aerobic condition by CLSI-based broth microdilution assay
# Assay type: functional
# Settings: not given
row,SMILES,MIC
1,CCCC#Cc1ccc(-n2ncc(/C(C)=N/NC(=N)N)c2C)cc1,16 µg/mL
2,C/C(=N\NC(=N)N)c1cnn(-c2ccc(C#Cc3ccccc3)cc2)c1C,8 µg/mL

# Test system: Enterococcus faecium
# Assay: Ratio of MBC to MIC for vancomycin-resistant Enterococcus faecium ATCC 700221 clinical isolates
# Assay type: functional
# Settings: not given
row,SMILES,Ratio
1,CCCC#Cc1ccc(-n2ncc(/C(C)=N/NC(=N)N)c2C)cc1,<3
2,C/C(=N\NC(=N)N)c1cnn(-c2ccc(C#Cc3ccccc3)cc2)c1C,<3

# Test system: Salmonella enteritidis
# Assay: Ratio of MBC to MIC for Salmonella enteritidis ATCC 14028 clinical isolates
# Assay type: functional, Salmonella enterica subsp. enterica serovar Enteritidis
# Settings: not given
row,SMILES,Ratio
1,CCCC#Cc1ccc(-n2ncc(/C(C)=N/NC(=N)N)c2C)cc1,>=1
2,C/C(=N\NC(=N)N)c1cnn(-c2ccc(C#Cc3ccccc3)cc2)c1C,>=1

# Test system: Staphylococcus aureus
# Assay: Bactericidal activity against methicillin-resistant Staphylococcus aureus NRS123-USA400 clinical isolates at 5 times MIC incubated over 24 hrs followed by replating on tryptic soy agar plate and further incubated for 18 to 20 hrs by time kill assay
# Assay type: functional, organism-based
# Settings: not given
row,SMILES,Activity
1,CCCC#Cc1ccc(-n2ncc(/C(C)=N/NC(=N)N)c2C)cc1,Active
2,C/C(=N\NC(=N)N)c1cnn(-c2ccc(C#Cc3ccccc3)cc2)c1C,Active

# Test system: Streptococcus pneumoniae
# Assay: Antibacterial activity against methicillin-resistant Streptococcus pneumoniae ATCC 700677 clinical isolates after 18 to 20 hrs by CLSI-based broth microdilution assay
# Assay type: functional
# Settings: not given
row,SMILES,MIC
1,CCCC#Cc1ccc(-n2ncc(/C(C)=N/NC(=N)N)c2C)cc1,4 µg/mL
2,C/C(=N\NC(=N)N)c1cnn(-c2ccc(C#Cc3ccccc3)cc2)c1C,2 µg/mL

# Test system: Staphylococcus aureus
# Assay: Antibacterial activity against Methicillin-resistant Staphylococcus aureus NRS123-USA400 clinical isolates after 18 to 20 hrs in aerobic condition by CLSI protocol based broth microdilution assay
# Assay type: functional
# Settings: not given
row,SMILES,MIC
1,CCCC#Cc1ccc(-n2ncc(/C(C)=N/NC(=N)N)c2C)cc1,2 µg/mL
2,C/C(=N\NC(=N)N)c1cnn(-c2ccc(C#Cc3ccccc3)cc2)c1C,2 µg/mL

# Test system: Acinetobacter baumannii
# Assay: microbe, parasite or virus in culture
# Settings: ATCC BAA 1747
# Description: Antibacterial activity against Acinetobacter baumannii ATCC BAA 1747 after 18 to 20 hrs in aerobic condition by CLSI-based broth microdilution assay
row,SMILES,MIC
1,CCCC#Cc1ccc(-n2ncc(/C(C)=N/NC(=N)N)c2C)cc1,8 µg/mL
2,C/C(=N\NC(=N)N)c1cnn(-c2ccc(C#Cc3ccccc3)cc2)c1C,4 µg/mL

# Test system: Escherichia coli
# Assay: Antibacterial activity against Escherichia coli ATCC 25922 clinical isolates after 18 to 20 hrs in aerobic condition by CLSI-based broth microdilution assay
# Assay type: functional
# Settings: not given
row,SMILES,MIC
1,CCCC#Cc1ccc(-n2ncc(/C(C)=N/NC(=N)N)c2C)cc1,8 µg/mL
2,C/C(=N\NC(=N)N)c1cnn(-c2ccc(C#Cc3ccccc3)cc2)c1C,4 µg/mL

# Test system: Acinetobacter baumannii
# Assay: Ratio of MBC to MIC for Acinetobacter baumannii ATCC BAA 1141 clinical isolates
# Assay type: functional
# Settings: not given
row,SMILES,Ratio
1,CCCC#Cc1ccc(-n2ncc(/C(C)=N/NC(=N)N)c2C)cc1,>=1
2,C/C(=N\NC(=N)N)c1cnn(-c2ccc(C#Cc3ccccc3)cc2)c1C,>=1

# Test system: Staphylococcus epidermidis
# Assay: Ratio of MBC to MIC for Staphylococcus epidermidis NRS101 clinical isolates
# Assay type: functional
# Settings: not given
row,SMILES,Ratio
1,CCCC#Cc1ccc(-n2ncc(/C(C)=N/NC(=N)N)c2C)cc1,<3
2,C/C(=N\NC(=N)N)c1cnn(-c2ccc(C#Cc3ccccc3)cc2)c1C,<3

# Test system: Staphylococcus aureus
# Assay: Antibacterial activity against Methicillin-sensitive Staphylococcus aureus NRS107 clinical isolates after 18 to 20 hrs in aerobic condition by CLSI protocol based broth microdilution assay
# Assay type: functional
# Settings: not given
row,SMILES,MIC
1,CCCC#Cc1ccc(-n2ncc(/C(C)=N/NC(=N)N)c2C)cc1,4 µg/mL
2,C/C(=N\NC(=N)N)c1cnn(-c2ccc(C#Cc3ccccc3)cc2)c1C,2 µg/mL
